Laboratory results: patent US20230381129A1, “PERMETRIN FOR USE IN THE TREATMENT OF DEMODEX SPP INFESTATION” (priority 2020, published 2023)
Where a name gives a salt, the structure may show the parent alone.

How the values were obtained:
[1] = tested on: Demodex mites; assay: In vitro survival study of Demodex mites on a glass slide without a coverslip; set-up: species or system Demodex spp.
Experimental: At least ten eyelashes from the upper and lower eyelids of both eyes were randomly collected from all subjects from the subsequent groups. The collected material was assessed in a UB-203i light microscope with a five-point revolver bowl and a vision track with a magnification of 4×, 10×, 20×, 40× and 100×, archiving the results with a digital camera type Toupcam TP 601300A from Touptek Photonics installed in the device.
In the case of the presence of Demodex mites, several dozen different chemical compounds in various concentrations with a potential demodicidal effect were used on the glass slide without the use of a coverslip. […] The in vitro test results for permethrin and fluralaner were archived using a Toupcam TP 601300A digital camera from Touptek Photonics mounted on the device.

[2] = tested on: Demodex spp. infestation; assay: Topical use of shampoo or shower gel in a person with inflammation and redness; assay type: in vivo, humans; settings: shampoo or shower gel containing 0.75% active, 3 times a week for 2 months, human
Description: A shampoo or shower gel containing 0.75% permethrin is used 3 times a week for a period of 2 months.
Shampoo or shower gel containing 0.75% fluralaner is used 3 times a week for a period of 2 months.
A shampoo or shower gel containing 0.5% fluralaner and 0.5% permethrin is used 3 times a week for a period of 2 months.

Compound: NCC[C@H](O)C(=O)N[C@@H]1C[C@H](N)[C@@H](O[C@H]2O[C@H](CN)[C@@H](O)[C@H](O)[C@H]2O)[C@H](O)[C@H]1O[C@H]1O[C@H](CO)[C@@H](O)[C@H](N)[C@H]1O [Amikacin]
- Time of Survival of Demodex mites ([1]; concentration 0.30%): more than 15 minutes

Compound: CN1[C@@H]2CC[C@H]1CC(OC(=O)C(CO)c1ccccc1)C2.CN1[C@@H]2CC[C@H]1CC(OC(=O)C(CO)c1ccccc1)C2.O=S(=O)(O)O (stereo partly drawn) [Atropinum sulfuricum]
- Time of Survival of Demodex mites ([1]; concentration 1%): more than 15 minutes

Compound: O=C(O)c1cn(C2CC2)c2cc(N3CCNCC3)c(F)cc2c1=O [Ciprofloxacin]
- Time of Survival of Demodex mites ([1]; concentration 0.30%): more than 15 minutes

Compound: CC=CC(=O)N(CC)c1ccccc1C [Crotamiton]
- Time of Survival of Demodex mites ([1]; concentration 10%): more than 15 minutes

Compound: CN(C)CCOC(=O)C(c1ccccc1)C1(O)CCCC1 (stereo not drawn) [Cyclopentolat]
- Time of Survival of Demodex mites ([1]; concentration 1%): more than 15 minutes

Compound: CCO [Ethanol]
- Time of Survival of Demodex mites ([1]; concentration 98%): more than 15 minutes

Compound: Cc1cc(C2=NOC(c3cc(Cl)cc(Cl)c3)(C(F)(F)F)C2)ccc1C(=O)NCC(=O)NCC(F)(F)F (stereo not drawn) [Fluralaner, 4-[(5R5)-5-(3,5-dichlorophenyl)-4,5-dihydro-5-(trifluoromethyl)-1,2-oxazol-3-yl]-N-[2-oxo-2-(2,2,2-trifluoroethylamino)ethyl]-o-toluamide]
- Eyelid margin inflammation and eye symptoms (burning, itching, dry eyes, scales and deposits) after treatment [2]: reduction in inflammation of the eyelid margins
- Skin inflammation symptoms and redness after treatment [2]: visible improvement
- Time of Survival of Demodex mites ([1]; concentration 10%): 6 min

Compound: OO [Hydrogen peroxide (hydrogen peroxide), Hydrogen peroxide]
- Time of Survival of Demodex mites ([1]; concentration 3%): more than 15 minutes

Compound: C[C@H]1COc2c(N3CCN(C)CC3)c(F)cc3c(=O)c(C(=O)O)cn1c23 [Levofloxacin]
- Time of Survival of Demodex mites ([1]; concentration 0.50%): more than 15 minutes

Compound: N=C(NCCCCCCNC(=N)NC(=N)Nc1ccc(Cl)cc1)NC(=N)Nc1ccc(Cl)cc1.O=C(O)[C@H](O)[C@@H](O)[C@H](O)[C@H](O)CO.O=C(O)[C@H](O)[C@@H](O)[C@H](O)[C@H](O)CO [Manusan (chlorhexidine digluconate), chlorhexidine digluconate]
- Time of Survival of Demodex mites ([1]; concentration 4%): more than 15 minutes

Compound: O=C(OCc1ccccc1)c1ccccc1 [Novosscabin (benzyl benzoate), benzyl benzoate]
- Time of Survival of Demodex mites ([1]; concentration 30%): more than 15 minutes

Compound: CC1COc2c(N3CCN(C)CC3)c(F)cc3c(=O)c(C(=O)O)cn1c23 (stereo not drawn) [Ofloxacin]
- Time of Survival of Demodex mites ([1]; concentration 0.30%): more than 15 minutes

Compound: CC1(C)C(C=C(Cl)Cl)C1C(=O)OCc1cccc(Oc2ccccc2)c1 (stereo not drawn) [Permethrin]
- Eyelid margin inflammation and eye symptoms (burning, itching, dry eyes, scales and deposits) after treatment [2]: reduction in inflammation of the eyelid margins
- Skin inflammation symptoms and redness after treatment [2]: visible improvement
- Time of Survival of Demodex mites ([1]; concentration 10%): 5 min

Compound: CNC[C@H](O)c1cccc(O)c1.Cl [Phenylephrini hydrochloridum]
- Time of Survival of Demodex mites ([1]; concentration 10%): more than 15 minutes

Compound: CC[C@@H]1C(=O)OC[C@@H]1Cc1cncn1C.Cl [Pilocarpinum hydrochloridum]
- Time of Survival of Demodex mites ([1]; concentration 2%): more than 15 minutes

Compound: CN(C)C(=O)Oc1cccc([N+](C)(C)C)c1 [Polstigmine (neostigmine methyl sulfate), neostigmine methyl sulfate]
- Time of Survival of Demodex mites ([1]; concentration 0.05%): more than 15 minutes

Compound: NC[C@H]1O[C@H](O[C@H]2[C@H](O)[C@@H](O[C@H]3O[C@H](CO)[C@@H](O)[C@H](N)[C@H]3O)[C@H](N)C[C@@H]2N)[C@H](N)C[C@@H]1O [Tobramycin]
- Time of Survival of Demodex mites ([1]; concentration 0.30%): more than 15 minutes

Compound: NC(N)=O [Urea]
- Time of Survival of Demodex mites ([1]; concentration 20%): more than 15 minutes

Compound: Gentamicin
- Time of Survival of Demodex mites ([1]; concentration 0.30%): more than 15 minutes

Compound: Ivermectin
- Time of Survival of Demodex mites ([1]; concentration 1%): more than 15 minutes
